Values quoted from earlier work as cited in US20250025420A1, “TERNARY CO-AMORPHOUS FORMS OF DRUGS, PROTEINS, AND WATER-SOLUBLE POLYMERS” (Zerion Pharma APS, priority 2021, published 2025).

Settings: stated in Materials

C=C(C)[C@@H]1CCC(C)=C[C@H]1c1c(O)cc(CCCCC)cc1O [Cannabidiol]
pKa: 9.7

C=CC(=O)N1CCC[C@@H](n2nc(-c3ccc(Oc4ccccc4)cc3)c3c(N)ncnc32)C1 [Ibrutinib]
pKa: 3.74
